Patent US7585852B2, “Cobalamine derivatives useful for diagnosis and treatment of abnormal cellular proliferation” (Solidago AG, priority 2003, dated 2009)
“Also recorded” adds a separate entry of the source.

Legend:
[1] = Biodistribution of radiolabeled cyanocobalamin derivatives in tumor bearing mice; type: in vivo, balb/c mice; conditions: for Tissue distribution: Blood / Tissue distribution: Kidney / Tissue distribution: Tumor / Tissue distribution: Liver: 24 h after i.v. injection of radioactive labeled derivative, tumor bearing mice (melanoma B16-F10), vitamin-free diet, figures use percent of injected radioactivity per gram of tissue; for Tissue distribution: Liver: in %ID/g; for Accumulation in tumor relative to blood / Accumulation in tumor relative to kidney and liver: from Table 1, 24 h after i.v. injection in mice
Description: For in vivo studies and for binding studies to the transport vectors, very high specific activity was demanded. Therefore, 100 μl of the labeled solution were injected to an analytical HPLC system to separate the hot from the cold vitamin derivative. The eluate fraction with the highest gamma activity (ca. 300 μl) was diluted with normal saline to a concentration of 10 μCi per animal before i.v. injection. Separation condition were: acetate buffer, XTerra RP8 column, gradient: 0% methanol (0 min), 30% methanol (15 min), 100% methanol (25 min) for the b and d-derivatives, and the TEAP system as described by Schibli et al. (Bioconjugate Chem. 2000, 343-351) for the other compounds.
For biodistribution studies with ^57Co-cyanocobalamin, 0.2 μCi/1 ng of the radiolabeled cyanocobalamin is mixed with 180 μl normal saline and injected i.v. in tumor bearing balb/c mice (syngeneic mouse melanoma B16-F10). After a specified time (5 min to 24 h), animals are sacrificed, the organs weighted and counted on a gamma counter. For biodistribution studies with ^99mTc-labeled cyanocobalamin, 10 μCi/0.5 ng of the radiolabelled cyanocobalamin is mixed with normal saline and used as before. For biodistribution with ^111In-labeled cyanocobalamin, 2 μCi/5 ng of the radiolabeled cyanocobalamin is mixed with normal saline and used as before. To study the effect of Vitamin B12 deficient food, the biodistribution of labeled cyanocobalamin is compared in mice fed with normal food with the biodistribution in mice fed with vitamin B12 deficient food for a period of 2 weeks.

transcobalamin II (TCII) = assay: Gel-shift (gel filtration) assay of radiolabeled cyanocobalamin derivatives with transport protein TC II; type: binding, rabbit; conditions: for Binding to TCII (in words): gel shift assay; for TC II reactivity: radioactive labeled derivative; for Gel filtration peak of the derivative mixed with TCII: Superdex 75 column, free derivative elutes at 1.5 kDa
Description: To test the binding affinity of cobalamin (Cbl) derivatives to TCII, an in vitro test is carried out with partially purified TCII obtained from the blood of rabbits. Recombinant TCII produced with an E. coli expression system can also be used as a substrate.
TC II is purified by affinity chromatography on a cyanocobalamin-agarose matrix (Sigma), The gel (5 ml) is first washed with 200 ml 50 mM Tris/1 M NaCl, pH 8.0, afterwards with 200 ml 0.1 M glycine/0.1 M glucose/1 M NaCl pH 10, and again with 200 ml 50 mM Tris/1 M NaCl. […] Bound TC II is eluted with 20 ml 4.0 Mguanidine HCl/50 mM Tris pH 8.0, and in a second step with 7.5 M guanidine HCl/50 mM Tris pH 8.0. Most of the bound TC II elutes already with 4 M guanidine HCl. Probes are dialyzed extensively against H2O for 2 days at 4° C. Typical yields are 5-30 nmol/l which translates into 7.5-10 μg of TC II (MW: 50 kDa) per rabbit.
Transcobalamin II cDNA is expressed in E. coli strain FA113, a K12 derivative with double knock-out in trxB and gor genes, where the cytoplasm forms an oxidizing environment and allows disulfide formation. The transcobalamin II protein contains a PreScission protease site followed by an N-terminal histidine tag. The protein is isolated from soluble fractions of E. coli extracts using nickel chelating sepharose. Cyanocobalamin is removed from the transcobalamin II bound to the chelating column with 8 M urea, and the transcobalamin II is afterwards released by imidazole. In some of the preparations, the His-tag is removed by a specific protease.
(§1) The interaction of radiolabeled (^57Co, ^99mTc, ^188Re, ^111In) cyanocobalamin derivatives is measured by gel-shift assay. Radiolabeled cyanocobalamin (0.05 ng to 1 ng) is allowed to react with an excess of transport proteins for 15 min at room temperature. This mixture is applied to a gel-filtration column (Superdex75, Amersham Biosciencies) in the running buffer PBS and 0.1% Tween 20. Biologically active cyanocobalamin, which binds to transport proteins, shifts from a molecular weight of about 1.4 kDa to 40-70 kDa, depending on the transport protein. Titration of the binding capacity of the transport proteins is done with ^57Co-cyanocobalamin (ICN Biomedicals GmbH, Germany; 10 μCi/50 ng).

[2] = target: T1, transcobalamin I (TC I; haptocorrin) (Homo sapiens, UniProt P20061); assay: Gel-shift (gel filtration) assay of radiolabeled cyanocobalamin derivatives with transport protein TC I; type: binding; conditions: Superdex 75 column; free derivative elutes at 1.5 kDa
T1 construct: As a source of transcobalamin I, saliva of vegetarian human subjects is used; from tissue; host or cells: human saliva (centrifuged, diluted 1:1 with PBS, sterile filtered)
T1 sequence (P20061 24-433): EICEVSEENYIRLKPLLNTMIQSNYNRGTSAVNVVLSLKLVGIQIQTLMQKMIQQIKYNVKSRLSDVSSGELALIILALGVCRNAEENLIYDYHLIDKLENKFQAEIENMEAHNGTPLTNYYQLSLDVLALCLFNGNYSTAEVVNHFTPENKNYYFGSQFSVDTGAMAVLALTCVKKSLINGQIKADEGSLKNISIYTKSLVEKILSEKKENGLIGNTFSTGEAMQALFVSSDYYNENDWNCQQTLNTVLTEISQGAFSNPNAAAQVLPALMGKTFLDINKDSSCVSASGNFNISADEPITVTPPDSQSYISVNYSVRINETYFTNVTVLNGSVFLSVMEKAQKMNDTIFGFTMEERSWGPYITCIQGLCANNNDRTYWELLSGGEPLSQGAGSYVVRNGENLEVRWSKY
Description: As a source of transcobalamin I, saliva of vegetarian human subjects is used. Saliva is centrifuged at 20'000 rpm 20 min at 4° C., mixed 1:1 with PBS and sterile filtered. The binding capacity of transcobalamin I is usually 10 ng/ml.
as §1

Row | Substance | Tissue distribution: Blood [1] | Tissue distribution: Kidney [1] | Tissue distribution: Tumor [1] | Tissue distribution: Liver [1] | Accumulation in tumor relative to blood [1] | Accumulation in tumor relative to kidney and liver [1] | Binding to TCII (in words) (transcobalamin II (TCII)) | TC II reactivity (transcobalamin II (TCII)) | Gel filtration peak of the derivative mixed with TCI [2] | Gel filtration peak of the derivative mixed with TCII (transcobalamin II (TCII))
1 | Cyanocobalamin-b-ethyl-PAMA-OEt [Example 10] | 0.1 %ID/g | 1.36 %ID/g | 0.73 %ID/g | 1.45 | five times or more than in blood | at least half the amount found in the critical organs kidney and liver | TCII non-binders | − |  | 
2 | Cyanocobalamin-b-butyl-PAMA-OEt [Example 12] | 0.04 %ID/g | 1.08 %ID/g | 6.13 %ID/g | 0.94 | five times or more than in blood | at least half the amount found in the critical organs kidney and liver | TCII non-binders | − |  | 
3 | Cyanocobalamin-b-propyl-PAMA-OEt [Example 11] | 0.09 %ID/g | 0.39 %ID/g | 1.61 %ID/g | 0.44 | five times or more than in blood | at least half the amount found in the critical organs kidney and liver | essentially a TCII-non binder; also recorded: TCII non-binders | − | 44 kDa | 1.5 kDa
4 | Cyanocobalamin-5′-phosphocolamin-His-OMe [Example 25] | 0.18 %ID/g | 116 %ID/g | 3.16 %ID/g | 20.70 |  |  | bind to TCII | + (they bind to TCII) |  | 
5 | Cyanocobalamin-d-propyl-PAMA-OEt [Example 18] | 0.06 %ID/g | 10.4 %ID/g | 6.8 %ID/g | 3.90 | five times or more than in blood | at least half the amount found in the critical organs kidney and liver | TCII non-binders | − |  | 
6 | Cyanocobalamin-b-butyl-aminocarboxymethyl-His-OMe [Example 6] |  |  |  |  |  |  | bind to TCII | + (they bind to TCII) |  | 
7 | Cyanocobalamin-b-ethyl-Triamine [Example 22] | 0.25 %ID/g | 3.54 %ID/g | 2.9 %ID/g | 3.90 | five times or more than in blood | at least half the amount found in the critical organs kidney and liver | TCII non-binders | − |  | 
8 | Cyanocobalamin-c-butyl-PAPAcet [Example 8] | 2.2 %ID/g | 16.5 %ID/g | 3.6 %ID/g | 8.10 |  |  | bind to TCII | + (they bind to TCII) |  | 
9 | Cyanocobalamin-b-propyl-His-OMe [Example 20] | 2.1 %ID/g | 19.9 %ID/g | 9.2 %ID/g | 21.06 |  |  | bind to TCII | + (they bind to TCII) |  | 
10 | Cyanocobalamin-b-butyl-PAPAcet [Example 5] | 2.3 %ID/g | 14.1 %ID/g | 7.9 %ID/g | 9.40 |  |  | does bind to TCII | + (they bind to TCII) | 44 kDa | 60 kDa
11 | Cyanocobalamin-b-hexyl-PAMA-OEt [Example 14] | 1.2 %ID/g | 40 %ID/g | 3 %ID/g | 8.00 |  |  | bind to TCII | + (they bind to TCII) |  | 
